Experimental data taken from publication PMC10184535, “An HR2-Mimicking Sulfonyl-γ-AApeptide Is a Potent Pan-coronavirus Fusion Inhibitor with Strong Blood–Brain Barrier Permeability, Long Half-Life, and Promising Oral Bioavailability” (ACS Central Science, 2023).
Where two headings read alike, the source gives them in different places.

What was measured:
[1] = system: SARS-CoV-2 PsV; details: 48 h
[2] = target: T1, HR1 peptide (911–987) (Severe acute respiratory syndrome coronavirus 2, UniProt P0DTC2); assay: Fluorescence polarization binding to HR1 peptide; parameters: species or system SARS-CoV-2
T1 construct: purchased NovoPep Limited

[3] = PAMPA-GIT; details: at three different pH values
[4] = system: pseudotyped bat SARSr-CoV WIV1; details: 48 h
[5] = system: pseudotyped MERS-CoV; details: 48 h
[6] = system: SARS-CoV-2 PsV; details: previously reported EK1 peptide; read-out: IC50, SARS-CoV-2 PsV infection, previously reported; cited from earlier work
[7] = system: pseudotyped HCoV-NL63; details: 48 h
[8] = system: pseudotyped SARS-CoV; details: 48 h

SMILES | IC50 [1] [nM] | Kd [2] [nM] | also measured
CC(=O)N[C@H](CC(C)C)CN(CC(=O)N[C@H](CCCCN)CN(CC(=O)N[C@H](CC(C)C)CN(CC(=O)N[C@H](CCC(=O)O)CN(CC(=O)N[C@H](CC(C)C)CN(CC(=O)N[C@H](CCC(=O)O)CN(CC(=O)N[C@H](C)CN(CC(=O)N[C@H](CCCCN)CN(CC(=O)N[C@H](C)CN(CC(=O)N[C@H](CCC(=O)O)CN(CC(=O)N[C@H](CC(C)C)CN(CC(=O)NCCCCCC(=O)NCCCCCC(=O)N[C@@H](CSCC(=O)OCCOCCOCCOCCOCCOCCOCCOCCO[C@H]1CC[C@@]2(C)C(=CC[C@H]3[C@@H]4CC[C@H]([C@H](C)CCCC(C)C)[C@@]4(C)CC[C@@H]32)C1)C(N)=O)S(=O)(=O)CC(C)C)S(C)(=O)=O)S(=O)(=O)CCN)S(C)(=O)=O)S(=O)(=O)CCN)S(=O)(=O)CC(C)C)S(=O)(=O)CCN)S(=O)(=O)CCN)S(C)(=O)=O)S(=O)(=O)CCN)S(=O)(=O)CC(C)C [XY4-C2] | 2850 | – | –
CC(=O)N[C@H](CC(C)C)CN(CC(=O)N[C@H](CCCCN)CN(CC(=O)N[C@H](CC(C)C)CN(CC(=O)N[C@H](CCC(=O)O)CN(CC(=O)N[C@H](CC(C)C)CN(CC(=O)N[C@H](CCC(=O)O)CN(CC(=O)N[C@H](C)CN(CC(=O)N[C@H](CCCCN)CN(CC(=O)N[C@H](C)CN(CC(=O)N[C@H](CCC(=O)O)CN(CC(=O)N[C@H](CC(C)C)CN(CC(N)=O)S(=O)(=O)CC(C)C)S(C)(=O)=O)S(=O)(=O)CCN)S(=O)(=O)CC(C)C)S(=O)(=O)CCN)S(=O)(=O)CC(C)C)S(=O)(=O)CCN)S(=O)(=O)CCN)S(C)(=O)=O)S(=O)(=O)CCN)S(=O)(=O)CCN [XY3] | – | 426 | –
CC(=O)N[C@H](CC(C)C)CN(CC(=O)N[C@H](CCCCN)CN(CC(=O)N[C@H](CC(C)C)CN(CC(=O)N[C@H](CCC(=O)O)CN(CC(=O)N[C@H](CC(C)C)CN(CC(=O)N[C@H](CCC(=O)O)CN(CC(=O)N[C@H](C)CN(CC(=O)N[C@H](CCCCN)CN(CC(=O)N[C@H](C)CN(CC(=O)N[C@H](CCC(=O)O)CN(CC(=O)N[C@H](CC(C)C)CN(CC(N)=O)S(=O)(=O)CC(C)C)S(=O)(=O)CC(C)C)S(=O)(=O)CCN)S(C)(=O)=O)S(=O)(=O)CCN)S(=O)(=O)CC(C)C)S(=O)(=O)CCN)S(=O)(=O)CCN)S(C)(=O)=O)S(=O)(=O)CCN)S(=O)(=O)CCN [XY2] | – | 329 | –
CC(=O)N[C@H](CC(C)C)CN(CC(=O)N[C@H](CCCCN)CN(CC(=O)N[C@H](CC(C)C)CN(CC(=O)N[C@H](CCC(=O)O)CN(CC(=O)N[C@H](CC(C)C)CN(CC(=O)N[C@H](CCC(=O)O)CN(CC(=O)N[C@H](C)CN(CC(=O)N[C@H](CCCCN)CN(CC(=O)N[C@H](C)CN(CC(=O)N[C@H](CCC(=O)O)CN(CC(=O)N[C@H](CC(C)C)CN(CC(N)=O)S(=O)(=O)CC(C)C)S(C)(=O)=O)S(=O)(=O)CCN)S(C)(=O)=O)S(=O)(=O)CCN)S(=O)(=O)CC(C)C)S(=O)(=O)CCN)S(=O)(=O)CCN)S(C)(=O)=O)S(=O)(=O)CCN)S(=O)(=O)CC(C)C [XY4] | – | 132 | –
NC(=O)N1c2ccccc2C=Cc2ccccc21 [carbamazepine] | – | – | Papp at 30 min, 50 μM ([3]; 50 μM, positive control): ~150 ×10⁻⁶ cm/s
CC(=O)N[C@H](CC(C)C)CN(CC(=O)N[C@H](CCCCN)CN(CC(=O)N[C@H](CC(C)C)CN(CC(=O)N[C@H](CCC(=O)O)CN(CC(=O)N[C@H](CC(C)C)CN(CC(=O)N[C@H](CCC(=O)O)CN(CC(=O)N[C@H](C)CN(CC(=O)N[C@H](CCCCN)CN(CC(=O)N[C@H](C)CN(CC(=O)N[C@H](CCC(=O)O)CN(CC(=O)N[C@H](CC(C)C)CN(CC(N)=O)S(=O)(=O)CC(C)C)S(C)(=O)=O)S(=O)(=O)CCN)S(C)(=O)=O)S(=O)(=O)CCN)S(=O)(=O)CC(C)C)S(=O)(=O)CCN)S(=O)(=O)CCN)S(C)(=O)=O)S(=O)(=O)CCN)S(=O)(=O)CCN [XY1] | – | 287 | –
CC(=O)N[C@H](CC(C)C)CN(CC(=O)N[C@H](CCCCN)CN(CC(=O)N[C@H](CC(C)C)CN(CC(=O)N[C@H](CCC(=O)O)CN(CC(=O)N[C@H](CC(C)C)CN(CC(=O)N[C@H](CCC(=O)O)CN(CC(=O)N[C@H](C)CN(CC(=O)N[C@H](CCCCN)CN(CC(=O)N[C@H](C)CN(CC(=O)N[C@H](CCC(=O)O)CN(CC(=O)N[C@H](CC(C)C)CN(CC(=O)N[C@H](CO)CN(CC(=O)N[C@H](CO)CN(CC(=O)N[C@@H](CSCC(=O)OCCOCCOCCOCCOCCOCCOCCOCCOCCOCCOCCOCCO[C@H]1CC[C@@]2(C)C(=CC[C@H]3[C@@H]4CC[C@H]([C@H](C)CCCC(C)C)[C@@]4(C)CC[C@@H]32)C1)C(N)=O)S(C)(=O)=O)S(C)(=O)=O)S(=O)(=O)CC(C)C)S(C)(=O)=O)S(=O)(=O)CCN)S(C)(=O)=O)S(=O)(=O)CCN)S(=O)(=O)CC(C)C)S(=O)(=O)CCN)S(=O)(=O)CCN)S(C)(=O)=O)S(=O)(=O)CCN)S(=O)(=O)CC(C)C [XY4-C6] | 2630 | – | –
CC[C@H](C)[C@H](NC(=O)[C@H](C)NC(=O)[C@H](CCC(=O)O)NC(=O)[C@H](CCC(=O)O)NC(=O)[C@H](CC(C)C)NC(=O)[C@H](CCCCN)NC(=O)[C@H](CCCCN)NC(=O)[C@H](CCSC)NC(=O)[C@H](CCC(=O)O)NC(=O)[C@H](Cc1ccc(O)cc1)NC(=O)[C@H](CCC(=O)O)NC(=O)[C@H](CC(C)C)NC(=O)[C@H](CC(=O)O)NC(=O)[C@H](CC(C)C)NC(=O)[C@H](Cc1ccccc1)NC(=O)[C@@H](NC(=O)[C@@H](NC(=O)[C@H](CC(N)=O)NC(=O)[C@@H](NC(=O)[C@H](CCC(N)=O)NC(=O)[C@H](CC(=O)O)NC(=O)[C@H](CC(C)C)NC(=O)[C@@H](N)CO)[C@@H](C)CC)C(C)C)[C@@H](C)O)C(=O)N[C@@H](CCCCN)C(=O)N[C@@H](CCCCN)C(=O)N[C@@H](CC(C)C)C(=O)N[C@@H](CCC(=O)O)C(=O)N[C@@H](CCC(=O)O)C(=O)N[C@@H](CO)C(=O)N[C@@H](Cc1ccc(O)cc1)C(=O)N[C@H](C(=O)N[C@@H](CC(=O)O)C(=O)N[C@@H](CC(C)C)C(=O)N[C@@H](CCCCN)C(=O)N[C@@H](CCC(=O)O)C(=O)N[C@@H](CC(C)C)C(=O)O)[C@@H](C)CC [EK1] | – | – | IC50 [4]: 19000 nM; IC50 [5]: 210 nM; IC50 [6]: 2380 nM; IC50 [7]: 4170 nM; IC50 [8]: 1210 nM
CC(=O)N[C@H](CC(C)C)CN(CC(=O)N[C@H](CCCCN)CN(CC(=O)N[C@H](CC(C)C)CN(CC(=O)N[C@H](CCC(=O)O)CN(CC(=O)N[C@H](CC(C)C)CN(CC(=O)N[C@H](CCC(=O)O)CN(CC(=O)N[C@H](C)CN(CC(=O)N[C@H](CCCCN)CN(CC(=O)N[C@H](C)CN(CC(=O)N[C@H](CCC(=O)O)CN(CC(=O)N[C@H](CC(C)C)CN(CC(=O)N[C@H](CO)CN(CC(=O)N[C@H](CO)CN(CC(=O)N[C@@H](CSCC(=O)OCCOCCOCCOCCOCCOCCOCCOCCO[C@H]1CC[C@@]2(C)C(=CC[C@H]3[C@@H]4CC[C@H]([C@H](C)CCCC(C)C)[C@@]4(C)CC[C@@H]32)C1)C(N)=O)S(C)(=O)=O)S(C)(=O)=O)S(=O)(=O)CC(C)C)S(C)(=O)=O)S(=O)(=O)CCN)S(C)(=O)=O)S(=O)(=O)CCN)S(=O)(=O)CC(C)C)S(=O)(=O)CCN)S(=O)(=O)CCN)S(C)(=O)=O)S(=O)(=O)CCN)S(=O)(=O)CC(C)C [XY4-C5] | 4050 | – | –
Cc1cc(=O)n(-c2ccccc2)n1C [antipyrine] | – | – | Papp at 30 min, 200 μM ([3]; 200 μM, negative control): < 6 ×10⁻⁶ cm/s
CC(=O)N[C@H](CC(C)C)CN(CC(=O)N[C@H](CCCCN)CN(CC(=O)N[C@H](CC(C)C)CN(CC(=O)N[C@H](CCC(=O)O)CN(CC(=O)N[C@H](CC(C)C)CN(CC(=O)N[C@H](CCC(=O)O)CN(CC(=O)N[C@H](C)CN(CC(=O)N[C@H](CCCCN)CN(CC(=O)N[C@H](C)CN(CC(=O)N[C@H](CCC(=O)O)CN(CC(=O)N[C@H](CC(C)C)CN(CC(=O)NCCCCCC(=O)NCCCCCC(=O)N[C@@H](CSCC(=O)OCCOCCOCCOCCOCCOCCOCCOCCOCCOCCOCCOCCO[C@H]1CC[C@@]2(C)C(=CC[C@H]3[C@@H]4CC[C@H]([C@H](C)CCCC(C)C)[C@@]4(C)CC[C@@H]32)C1)C(N)=O)S(=O)(=O)CC(C)C)S(C)(=O)=O)S(=O)(=O)CCN)S(C)(=O)=O)S(=O)(=O)CCN)S(=O)(=O)CC(C)C)S(=O)(=O)CCN)S(=O)(=O)CCN)S(C)(=O)=O)S(=O)(=O)CCN)S(=O)(=O)CC(C)C [XY4-C3] | 920 | – | –
CC(=O)N[C@H](CC(C)C)CN(CC(=O)N[C@H](CCCCN)CN(CC(=O)N[C@H](CC(C)C)CN(CC(=O)N[C@H](CCC(=O)O)CN(CC(=O)N[C@H](CC(C)C)CN(CC(=O)N[C@H](CCC(=O)O)CN(CC(=O)N[C@H](C)CN(CC(=O)N[C@H](CCCCN)CN(CC(=O)N[C@H](C)CN(CC(=O)N[C@H](CCC(=O)O)CN(CC(=O)N[C@H](CC(C)C)CN(CC(=O)NCCCCCC(=O)NCCCCCC(=O)N[C@@H](CSCC(=O)OCCOCCOCCOCCO[C@H]1CC[C@@]2(C)C(=CC[C@H]3[C@@H]4CC[C@H]([C@H](C)CCCC(C)C)[C@@]4(C)CC[C@@H]32)C1)C(N)=O)S(=O)(=O)CC(C)C)S(C)(=O)=O)S(=O)(=O)CCN)S(C)(=O)=O)S(=O)(=O)CCN)S(=O)(=O)CC(C)C)S(=O)(=O)CCN)S(=O)(=O)CCN)S(C)(=O)=O)S(=O)(=O)CCN)S(=O)(=O)CC(C)C [XY4-C1] | 29800 | – | –
